{"source": "ChEMBL document CHEMBL1156844", "about": "“Inhibition of neuraminidase activity by polyphenol compounds isolated from the roots of Glycyrrhiza uralensis” (Bioorg Med Chem Lett, 2010)", "key": {"[1]": {"assay": "Inhibition of Spanish flu (A/Bervig_Mission/1/18) neuraminidase by noncompetitive inhibition assay", "design": "species or system Influenza A virus (A/Brevig Mission/1/1918(H1N1))"}, "[2]": {"assay": "Inhibition of Spanish flu (A/Bervig_Mission/1/18) neuraminidase", "design": "species or system Influenza A virus (A/Brevig Mission/1/1918(H1N1))"}, "[3]": {"test_system": "Influenza A virus (A/Brevig Mission/1/1918(H1N1))", "assay": "Inhibition of Spanish flu (A/Bervig_Mission/1/18) neuraminidase at 200 uM"}}, "data": [{"smiles": "COc1cc(O)ccc1C(=O)/C=C/c1ccc(O)cc1", "values": [{"measurement": "Ki", "setting": "[1]", "value": 20.1, "unit": "µM"}, {"measurement": "IC50", "setting": "[2]", "value": 24.3, "unit": "µM"}]}, {"smiles": "COc1c(CC=C(C)C)c(O)cc2c1C[C@H](c1ccc(O)cc1O)CO2", "values": [{"measurement": "inhibition", "setting": "[3]", "value": 20, "unit": "%"}]}, {"smiles": "COc1c2c(cc3oc(=O)c(-c4ccc(O)cc4O)cc13)OC(C)(CO)CC2", "note": "(stereo unspecified)", "values": [{"measurement": "inhibition", "setting": "[3]", "value": 10, "unit": "%"}]}, {"smiles": "COc1cc2c(c(OC)c1CC=C(C)C)C(=O)[C@H](c1ccc(O)c(CC=C(C)C)c1O)CO2", "values": [{"measurement": "inhibition", "setting": "[3]", "value": 30, "unit": "%"}]}, {"smiles": "COc1cc2c(c(OC)c1CC=C(C)C)C[C@H](c1ccc(O)cc1O)CO2", "values": [{"measurement": "inhibition", "setting": "[3]", "value": 20, "unit": "%"}]}, {"smiles": "COc1cc2oc(=O)c(-c3ccc(O)cc3O)cc2c(OC)c1CC=C(C)C", "values": [{"measurement": "inhibition", "setting": "[3]", "value": 10, "unit": "%"}]}, {"smiles": "COc1ccc(-c2coc3cc(O[C@@H]4O[C@H](CO)[C@@H](O)[C@H](O)[C@H]4O)ccc3c2=O)cc1", "values": [{"measurement": "inhibition", "setting": "[3]", "value": 30, "unit": "%"}]}, {"smiles": "COc1c(CC=C(C)C)c(O)cc2oc(=O)c3c4ccc(O)cc4oc3c12", "note": "[GLYCYROL]", "values": [{"measurement": "Ki", "setting": "[1]", "value": 2.9, "unit": "µM"}, {"measurement": "IC50", "setting": "[2]", "value": 3.1, "unit": "µM"}]}, {"smiles": "COc1c2c(cc3oc(=O)c4c5ccc(O)cc5oc4c13)OC(C)(C)CC2", "note": "[ISOGLYCYROL]", "values": [{"measurement": "Ki", "setting": "[1]", "value": 77.5, "unit": "µM"}, {"measurement": "IC50", "setting": "[2]", "value": 92.4, "unit": "µM"}]}, {"smiles": "O=C(/C=C/c1ccc(O)cc1)c1ccc(O)cc1O", "note": "[ISOLIQUIRITIGENIN]", "values": [{"measurement": "Ki", "setting": "[1]", "value": 9.9, "unit": "µM"}, {"measurement": "IC50", "setting": "[2]", "value": 9, "unit": "µM"}]}, {"smiles": "O=C(/C=C/c1ccc(O[C@@H]2O[C@H](CO)[C@@H](O)[C@H](O)[C@H]2O[C@H]2OC[C@@](O)(CO)[C@@H]2O)cc1)c1ccc(O)cc1O", "note": "[ISOLIQUIRITIN APIOSIDE]", "values": [{"measurement": "Ki", "setting": "[1]", "value": 14.2, "unit": "µM"}, {"measurement": "IC50", "setting": "[2]", "value": 12.9, "unit": "µM"}]}, {"smiles": "O=C(/C=C/c1ccc(O[C@@H]2O[C@H](CO)[C@@H](O)[C@H](O)[C@H]2O)cc1)c1ccc(O)cc1O", "note": "[ISOLIQUIRITIN]", "values": [{"measurement": "Ki", "setting": "[1]", "value": 94, "unit": "µM"}, {"measurement": "IC50", "setting": "[2]", "value": 124, "unit": "µM"}]}, {"smiles": "COc1cc(O)c2c(=O)c(OC)c(-c3ccc(O)cc3)oc2c1", "note": "[KUMATAKENIN]", "values": [{"measurement": "Ki", "setting": "[1]", "value": 90.3, "unit": "µM"}, {"measurement": "IC50", "setting": "[2]", "value": 36.4, "unit": "µM"}]}, {"smiles": "COc1c(CC=C(C)C)c(O)cc2oc(-c3ccc(O)cc3O)cc12", "note": "[LICOCOUMARONE]", "values": [{"measurement": "Ki", "setting": "[1]", "value": 12.1, "unit": "µM"}, {"measurement": "IC50", "setting": "[2]", "value": 27.8, "unit": "µM"}]}, {"smiles": "CC(C)=CCc1c(O)cc2oc(-c3ccc(O)cc3)c(O)c(=O)c2c1O", "note": "[LICOFLAVONOL]", "values": [{"measurement": "Ki", "setting": "[1]", "value": 33, "unit": "µM"}, {"measurement": "IC50", "setting": "[2]", "value": 20.6, "unit": "µM"}]}, {"smiles": "O=C1C[C@@H](c2ccc(O[C@@H]3O[C@H](CO)[C@@H](O)[C@H](O)[C@H]3O[C@H]3OC[C@@](O)(CO)[C@@H]3O)cc2)Oc2cc(O)ccc21", "note": "[LIQUIRITIN APIOSIDE]", "values": [{"measurement": "Ki", "setting": "[1]", "value": 20.4, "unit": "µM"}, {"measurement": "IC50", "setting": "[2]", "value": 18.2, "unit": "µM"}]}, {"smiles": "O=C1C[C@@H](c2ccc(O[C@@H]3O[C@H](CO)[C@@H](O)[C@H](O)[C@H]3O)cc2)Oc2cc(O)ccc21", "note": "[LIQUIRITIN]", "values": [{"measurement": "Ki", "setting": "[1]", "value": 124, "unit": "µM"}, {"measurement": "IC50", "setting": "[2]", "value": 82.3, "unit": "µM"}]}, {"smiles": "O=C1C[C@@H](c2ccc(O)cc2)Oc2cc(O)ccc21", "note": "[LIQUIRTIGENIN]", "values": [{"measurement": "Ki", "setting": "[1]", "value": 33.1, "unit": "µM"}, {"measurement": "IC50", "setting": "[2]", "value": 46.8, "unit": "µM"}]}, {"smiles": "CCOC(=O)C1=C[C@@H](OC(CC)CC)[C@H](NC(C)=O)[C@@H](N)C1", "note": "[OSELTAMIVIR]", "values": [{"measurement": "IC50", "setting": "[2]", "value": 1.59, "unit": "µM"}]}]}
